What all share (type): in vivo
Assay [1] concerns Amaranthus retoflexus (AMARE). The assay is described as follows: Post-emergence biological efficacy, glasshouse pot test. Particulars: Amaranthus retroflexus, 312 h; post-emergence, 1,000 g/ha, evaluated after 13 days (100=total damage; 0=no damage); read-out: Percentage damage caused to weed species, AMARE. Summed up: (§1)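 Pot-grown weeds were sprayed 8 days after sowing with test compound in acetone/water (50:50) with 0.5% Tween 20 at 1000 or 250 g/ha. Glasshouse at 24/16° C day/night, 14 h light, 65% humidity. Damage scored 0-100 (100 = total damage) after 13 days.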

Assay [2] has as its system Setaria faberi (SETFA). Described as above. Particulars: 312 h, post-emergence, 1,000 g/ha, evaluated after 13 days (100=total damage; 0=no damage), read-out: Percentage damage caused to weed species, SETFA. The essentials: as §1
The subject of assay [3] is Solanum nigrum (SOLNI). Described as above. The following applies: 312 h, post-emergence, 1,000 g/ha, evaluated after 13 days (100=total damage; 0=no damage), read-out: Percentage damage caused to weed species, SOLNI. Summed up:
as §1

The test system of assay [4] is Echinochloa crus-galli (ECHCG). The description is as above. Particulars: 312 h, post-emergence, 1,000 g/ha, evaluated after 13 days (100=total damage; 0=no damage), read-out: Percentage damage caused to weed species, ECHCG. The essentials: as §1
The test system of assay [5] is Alopecurus myosuroides (ALOMY). Described as above. The following applies: 312 h, post-emergence, 1,000 g/ha, evaluated after 13 days (100=total damage; 0=no damage), read-out: Percentage damage caused to weed species, ALOMY. Summed up: as §1
Assay [6] relates to Ipomea hederaceae (IPOHE). The assay is described as above. The following applies: Ipomoea hederacea, 312 h; post-emergence, 1,000 g/ha, evaluated after 13 days (100=total damage; 0=no damage); read-out: Percentage damage caused to weed species, IPOHE. Summed up:
as §1

Assay [7] concerns Amaranthus retoflexus (AMARE). Nature of the assay: Pre-emergence biological efficacy, glasshouse pot test. Particulars: Amaranthus retroflexus, 312 h; pre-emergence, 1,000 g/ha, evaluated after 13 days (100=total damage; 0=no damage); read-out: Percentage damage AMARE. Summed up:
(§2)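 Visual phytotoxicity (0 no damage, 100 total damage) assessed 13 d after treatment. Soil-sown pots sprayed one day post-sowing; dose 1000 or 250 g/ha; formulation in acetone/water 50:50, 0.5% Tween 20.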

Assay [8] concerns Setaria faberi (SETFA). The assay is described as above. The following applies: 312 h, pre-emergence, 1,000 g/ha, evaluated after 13 days (100=total damage; 0=no damage), read-out: Percentage damage SETFA. Summed up: as §2
In assay [9] the test system is Solanum nigrum (SOLNI). The description is as above. The following applies: 312 h, pre-emergence, 1,000 g/ha, evaluated after 13 days (100=total damage; 0=no damage), read-out: Percentage damage SOLNI. Summed up:
as §2

For assay [10], the system named is Echinochloa crus-galli (ECHCG). The assay is described as above. The following applies: 312 h, pre-emergence, 1,000 g/ha, evaluated after 13 days (100=total damage; 0=no damage), read-out: Percentage damage ECHCG. Summed up: as §2
For assay [11], the system named is Alopecurus myosuroides (ALOMY). The assay is described as above. Particulars: 312 h, pre-emergence, 1,000 g/ha, evaluated after 13 days (100=total damage; 0=no damage), read-out: Percentage damage ALOMY. Summed up: as §2
The test system of assay [12] is Ipomea hederaceae (IPOHE). Described as above. The following applies: Ipomoea hederacea, 312 h; pre-emergence, 1,000 g/ha, evaluated after 13 days (100=total damage; 0=no damage); read-out: Percentage damage IPOHE. Summed up: as §2

On to `COC(=O)c1nc(C2CC2)nc(NCc2ccccn2)c1Cl` [Compound 4-151, 5-Chloro-2-cyclopropyl-6-methoxycarbonyl-4-(pyrid-2-yl-methylamino)-pyrimidine], for which the pest or weed control at 1000 g/ha in [1] was 100%; in the assay with Setaria faberi (SETFA) [2], 80%; in the assay on Solanum nigrum (SOLNI) [3], 80%; in assay [4] it was 80%; in assay [5] it was 60%; in assay [6] it was 80%. Further, the pest or weed control at 1000 g/ha in assay [7] came out at 100%; in the assay on Setaria faberi (SETFA) [8], 50%; in the assay with Solanum nigrum (SOLNI) [9], 90%; in [10], 60%; in [11], 40%; in assay [12], 90%.

Turning to `COC(=O)c1nc(C2CC2)nc(NCc2ncccc2Cl)c1Cl` [Compound 4-152, 5-Chloro-4-(3-chloropyrid-2-ylmethylamino)-2-cyclopropyl-6-methoxycarbonyl-pyrimidine], the pest or weed control at 1000 g/ha in assay [1] came out at 100%; with Setaria faberi (SETFA) [2], 90%; in the assay on Solanum nigrum (SOLNI) [3] it was 90%; in [4], 80%; in assay [5], 50%; in assay [6] it was 100%. Also, the pest or weed control at 1000 g/ha was 70% in [7]; 40% with Setaria faberi (SETFA) [8]; 80% with Solanum nigrum (SOLNI) [9]; 70% in assay [10]; 20% in [11]; 100% in assay [12].

Take `COC(=O)c1nc(C2CC2)nc(NCc2ncccc2C)c1Cl` [Compound 4-153, 5-Chloro-2-cyclopropyl-6-methoxycarbonyl-4-(3-methylpyrid-2-ylmethylamino)-pyrimidine]: the pest or weed control at 1000 g/ha in assay [1] turned out to be 100%; with Setaria faberi (SETFA) [2], 90%; in the assay with Solanum nigrum (SOLNI) [3] it was 100%; in assay [4] it was 80%; in assay [5], 70%; in assay [6] it was 100%. Besides, the pest or weed control at 1000 g/ha in assay [7] is 100%; in the assay with Setaria faberi (SETFA) [8] it was 60%; in the assay on Solanum nigrum (SOLNI) [9] it was 100%; in assay [10], 60%; in assay [11] it was 50%; in assay [12], 100%.

Turning to `COC(=O)c1nc(C2CC2)nc(NCc2ncc(C(F)(F)F)cc2Cl)c1Cl` [Compound 4-155, 5-Chloro-4-(3-chloro-5-trifluoromethylpyrid-2-ylmethylamino)-2-cyclopropyl-6-methoxycarbonyl-pyrimidine], the pest or weed control at 1000 g/ha in [1] came out at 100%; with Setaria faberi (SETFA) [2] it was 70%; in the assay with Solanum nigrum (SOLNI) [3] it was 90%; in assay [4], 70%; in assay [5] it was 30%; in assay [6], 90%. The pest or weed control at 1000 g/ha in [7] turned out to be 90%; in the assay on Setaria faberi (SETFA) [8], 20%; in the assay on Solanum nigrum (SOLNI) [9], 70%; in assay [10], 80%; in [11], 20%; in assay [12], 90%.

For `COC(=O)c1nc(C2CC2)nc(NCc2cccnc2)c1Cl` [Compound 4-156, 5-Chloro-2-cyclopropyl-6-methoxycarbonyl-4-(pyrid-3-ylmethyl-amino)pyrimidine], the pest or weed control at 1000 g/ha in assay [1] was 100%; in the assay with Setaria faberi (SETFA) [2], 70%; with Solanum nigrum (SOLNI) [3], 90%; in assay [4], 50%; in assay [5], 30%; in assay [6], 70%. For the same compound, the pest or weed control at 1000 g/ha was found to be 50% in assay [7]; 0% with Setaria faberi (SETFA) [8]; 30% in the assay on Solanum nigrum (SOLNI) [9]; 0% in assay [10]; 0% in [11]; 80% in assay [12].

Consider `COC(=O)c1nc(C2CC2)nc(NCc2ccc(C(F)(F)F)nc2)c1Cl` [Compound 4-159, 5-Chloro-2-cyclopropyl-6-methoxycarbonyl-4-(2-trifluoromethyl-pyrid-5-yl-methyl-amino)-pyrimidine], for which the pest or weed control at 1000 g/ha in [1] turned out to be 90%; in the assay on Setaria faberi (SETFA) [2], 70%; with Solanum nigrum (SOLNI) [3], 80%; in assay [4], 80%; in assay [5], 30%; in assay [6], 80%. For the same compound, the pest or weed control at 1000 g/ha in [7] was 0%; with Setaria faberi (SETFA) [8] it was 0%; in the assay on Solanum nigrum (SOLNI) [9], 20%; in [10], 30%; in assay [11], 10%; in assay [12], 70%.

With `COC(=O)c1nc(C2CC2)nc(NCc2ccncc2)c1Cl` [Compound 4-160, 5-Chloro-2-cyclopropyl-6-methoxycarbonyl-4-(pyrid-4-yl-methyl-amino)pyrimidine], the pest or weed control at 1000 g/ha is 100% in assay [1]; 80% with Setaria faberi (SETFA) [2]; 80% in the assay with Solanum nigrum (SOLNI) [3]; 70% in assay [4]; 40% in assay [5]; 90% in [6]. In addition, the pest or weed control at 1000 g/ha in assay [7] was found to be 70%; with Setaria faberi (SETFA) [8] it was 50%; with Solanum nigrum (SOLNI) [9], 90%; in assay [10], 60%; in assay [11] it was 20%; in [12], 100%.

Turning to `COC(=O)c1nc(C2CC2)nc(NCc2cc3cc(Br)ccc3o2)c1Cl` [Compound 4-164, 4-(5-Bromo-benzofuran-2-yl)methylamino-5-chloro-2-cyclopropyl-6-methoxycarbonyl-pyrimidine], the pest or weed control at 1000 g/ha in assay [1] amounted to 100%; in the assay with Setaria faberi (SETFA) [2], 70%; in the assay with Solanum nigrum (SOLNI) [3] it was 100%; in assay [4], 60%; in assay [5], 30%; in assay [6], 80%. For the same compound, the pest or weed control at 1000 g/ha worked out at 50% in [7]; 30% in the assay with Setaria faberi (SETFA) [8]; 50% in the assay on Solanum nigrum (SOLNI) [9]; 30% in assay [10]; 30% in [11]; 100% in assay [12].

For `COC(=O)c1nc(C2CC2)nc(NCc2nc3ccccc3s2)c1Cl` [Compound 4-168, 4-(Benzothiazol-2-ylmethylamino)-5-chloro-2-cyclopropyl-6-methoxycarbonyl-pyrimidine], the pest or weed control at 1000 g/ha amounted to 90% in assay [1]; 60% in the assay with Setaria faberi (SETFA) [2]; 70% with Solanum nigrum (SOLNI) [3]; 40% in assay [4]; 30% in [5]; 60% in assay [6]. The pest or weed control at 1000 g/ha was determined as 20% in assay [7]; 0% in the assay on Setaria faberi (SETFA) [8]; 40% in the assay with Solanum nigrum (SOLNI) [9]; 20% in assay [10]; 20% in assay [11]; 50% in assay [12].

The values are drawn from patent US20110086759A1, “CHEMICAL COMPOUNDS” (SYNGENTA CROP PROTECTION, INC., priority 2007, published 2011).
